For data set [1] the following is noted: cited from earlier work.
The conditions of data set [2]: Biopharmaceutics Classification System class; cited from earlier work.
Data set [3] can be described thus: Incorporation of therapeutic compound into glycerolipid formulations with digestion enhancers (visual; cooling and remelting). The conditions noted are these: for behaviour on stepwise hard fat addition (visual): then GELUCIRE 43/01 up to 1,000 mg.
Data set [4] can be described thus: Solubility of therapeutic compound in heated lipids in the absence of cholic acid (visual). Particulars: 60° C., stirred at least 60 minutes; only MAISINE CC and MAISINE CC/GELUCIRE 43/01 in ratios of 2:1 to 1:2. The procedure: ® 43/01, was then added in a stepwise fashion of 6 g to this lipid mixture until the total amount reached 24 g. […]
Data set [5] in a line: Formulating procedure: dissolution and stable incorporation in glycerolipid admixture/matrix. Type of data set: physicochemical. The conditions noted are these: as shown in Example 3.
Protocol: As a first step, it is first determined whether a selected therapeutic compound can be formulated using 1) glycerolipids including at least one liquid fat (glycerolipid that is liquid at 18° C.) and at least one hard fat (glycerolipid that is solid at 18° C.) and 2) one or more digestion enhancers. In some embodiments, the one or more liquid and hard fats are first heated and the one or more digestion enhancers are solubilized in the glycerolipid admixture. Upon completion of solubility of the digestion enhancers, and if appropriate, the temperature of the admixture can be adjusted and a selected therapeutic compound is then dissolved in this heated admixture to incorporate the compound. […] In some embodiments, the one or more liquid fats are first heated and the one or more digestion enhancers are solubilized in the liquid fats. […] The initial heating step in all procedures is performed at a temperature sufficient to dissolve the one or more digestion enhancers and selected therapeutic compound and can be empirically determined based on the melting point of the selected components. […] Any subsequent adjustment to the heat when one or more liquid fats and/or one or more hart fats are being added to the admixture is performed at a temperature sufficient to melt the hard fats and can be empirically determined based on the melting point of the hard fat used in the formulation. […]
The conditions of data set [6]: previous studies; cited from earlier work.
Data set [7] can be described thus: Oleic acid miscibility / self-emulsification in dissolution media modelling ICH dissolution testing. The data set is classed as physicochemical. The conditions noted are these: 1 g (100% or 75%) in one liter PBS with […] curcumin, 37° C., 300 rpm 10 minutes, then 10 minutes without stirring. The procedure: To assess whether oleic acid could self-emulsify at the concentrations used in the disclosed pharmaceutical compositions, experiments was performed that were designed to model dissolution testing according to International Council for Harmonisation (ICH) guidelines. […] Miscibility experiments were performed using two concentrations of oleic acid nominally above the CMC concentration for this fatty acid. In one series of experiments, 1 g of 100% oleic acid was added to the dissolution media. The control compound was 1 g of 100% MAISINE™ CC. In a second series of experiments 1 g of 75% oleic acid (diluted with 250 mg of MAISINE™ CC) was added to the dissolution media. The control compound was 1 g of 75% MAISINE™ CC. The miscibility of oleic acid and MAISINE™ CC was assessed by observing the dissolution media for 10 minutes with constant stirring and then 10 minutes without stirring. Photographs were taken at time 0, 1, 2, 3, 4, 5 and 10 minutes during the stirring phase and 2, 4 and 10 minutes after stirring ceased.
Both oleic acid preparations quickly distributed throughout the PBS in small but clearly defined lipid droplets which were still observable after 10 minutes of stirring. On cessation of stirring, the lipid droplets either adhered to the stirrer or floated to the top of the PBS, with the bulk of the PBS clearing. […]

The conditions of data set [8]: reported value; cited from earlier work.

Bounds are passed on as bounds.

As to `C[C@]12CC[C@H](O)CC1=CC[C@@H]1[C@@H]2CC[C@]2(C)C(c3cccnc3)=CC[C@@H]12` [Abiraterone], in data set [1], the “Log P” value is greater than 1. `CN(C)CCC=C1c2ccccc2CCc2ccccc21` [Amitriptyline]: the BCS result in data set [2] was “I”. Further, the “Log P” value in data set [1] is listed as greater than 1. `CC(C)c1ccc2oc3nc(N)c(C(=O)O)cc3c(=O)c2c1` [Amlexanox]: in data set [1], the “Log P” value is greater than 1. With `C[C@@H](O[C@H]1OCCN(Cc2n[nH]c(=O)[nH]2)[C@H]1c1ccc(F)cc1)c1cc(C(F)(F)F)cc(C(F)(F)F)c1` [Aprepitant], the “Log P” value in data set [1] is reported as greater than 1. In addition, the “incorporation into heated glycerolipid mixture (visual)” value in data set [3] (50 mg with 40 mg cholic acid added to 500 mg MAISINE CC and 1,000 mg GELUCIRE 43/01 together, about 120° C. to about 160° C.) is on record as “failed to incorporate”. Moreover, the “behaviour on stepwise hard fat addition (visual)” value in data set [3] (50 mg with 40 mg cholic acid in 500 mg MAISINE CC, about 120° C. to about 160-170° C.) was “remained in solution”; in data set [3] (60 mg dissolved in 500 mg MAISINE CC without cholic acid, about 120° C. to about 160° C.), “precipitate”.

For the compound `CC(=O)OC[C@H]1O[C@@H]([S-])[C@H](OC(C)=O)[C@@H](OC(C)=O)[C@@H]1OC(C)=O.CCP(CC)CC.[Au+]` [Auranofin], in data set [4], the “solubility in heated lipid in the absence of cholic acid (visual)” value was “remained insoluble”. Regarding `CC(C)(C)c1cc(NC(=O)Nc2ccc(Oc3ccnc4[nH]c(=O)cnc34)cc2F)n(-c2cccc(F)c2)n1` [CCT3833], the “Log P” value in data set [1] is given as greater than 1.

For the compound `COc1cc(/C=C/C(=O)CC(=O)/C=C/c2ccc(O)c(OC)c2)ccc1O` [Curcumin], the “solubility using a formulation disclosed herein” value in data set [5] was “soluble”. In data set [1], the “Log P” value is greater than 1.

In the case of `CCCCCCCC(=O)N[C@H](CN1CCCC1)[C@H](O)c1ccc2c(c1)OCCO2` [Eliglustat], the BCS result in data set [2] is on record as “I or III”. Besides, the “Log P” value in data set [1] is listed as greater than 1.

With `CC(C)OC(=O)C(C)(C)Oc1ccc(C(=O)c2ccc(Cl)cc2)cc1` [Fenofibrate], the “Log P” value in data set [1] is on record as greater than 1. In the case of `Cc1ccc(C)c(OCCCC(C)(C)C(=O)O)c1` [Gemfibrozil], the “Log P” value in data set [1] is on record as greater than 1. Turning to `COC(=O)Nc1nc2ccc(C(=O)c3ccccc3)cc2[nH]1` [Mebendazole], the “Log P” value in data set [1] is reported as greater than 1.

Consider `CN(C)C(=N)N=C(N)N` [Metformin], for which, in data set [2], the BCS result is on record as “I”.

As to `CO[C@@H]1[C@H](N(C)C(=O)c2ccccc2)C[C@H]2O[C@]1(C)n1c3ccccc3c3c4c(c5c6ccccc6n2c5c31)C(=O)NC4` [Midostaurin], in data set [1], the “Log P” value is on record as greater than 1. On to `O=C(O)c1cccnc1` [Niacin], for which, in data set [2], the BCS result is recorded as “I”. For the same compound, the “Log P” value in data set [1] is less than 1. For the compound `COC(=O)c1ccc2c(c1)NC(=O)/C2=C(\Nc1ccc(N(C)C(=O)CN2CCN(C)CC2)cc1)c1ccccc1` [Nintedanib], in data set [2], the BCS entry is “II or IV”. Further, the “Log P” value in data set [1] was greater than 1. For the compound `CO[C@@H]1[C@@H](OC(N)=O)[C@@H](O)[C@H](Oc2ccc3c(O)c(NC(=O)c4ccc(O)c(CC=C(C)C)c4)c(=O)oc3c2C)OC1(C)C` [Novobiocin], the “Log P” value in data set [1] is recorded as greater than 1. For the compound `O=C(c1cc(Cc2n[nH]c(=O)c3ccccc23)ccc1F)N1CCN(C(=O)C2CC2)CC1` [Olaparib], the “Log P” value in data set [1] was greater than 1. The “appearance on remelting of the solid composition (visual)” value in data set [3] (MAISINE CC, fatty acid component, cholic acid and GELUCIRE 43/01, 130° C., cooled, remelted at 50° C.) was “no precipitate formation”. The “behaviour on cooling and solidification (visual)” value in data set [3] (MAISINE CC, oleic acid and GELUCIRE 43/01 without cholic acid, 130° C., cooled to room temperature) was “precipitated out of solution”. Regarding `COc1ccc2[nH]c([S+]([O-])Cc3ncc(C)c(OC)c3C)nc2c1` (centres unmarked) [Omeprazole], the “Log P” value in data set [1] was greater than 1. For `Cc1ccc(=O)n(-c2ccccc2)c1` [Pirfenidone], the BCS entry in data set [2] is reported as “I”. Also, the “Log P” value in data set [1] is recorded as greater than 1. Regarding `Clc1ccc(CCCOCCCN2CCCCC2)cc1` [Pitolisant], the BCS result in data set [2] is “I”. The “Log P” value in data set [1] was greater than 1.

For `O=C(C1CCCCC1)N1CC(=O)N2CCc3ccccc3C2C1` (centres unmarked) [Praziquantel], the “Log P” value in data set [1] is greater than 1. For the compound `CC(=O)[C@H]1CC[C@H]2[C@@H]3CCC4=CC(=O)CC[C@]4(C)[C@H]3CC[C@]12C` [Progesterone], the “Log P” value in data set [1] is given as greater than 1.

As for `CC(C)NCC(O)COc1cccc2ccccc12` (centres unmarked) [Propranolol], the BCS result in data set [2] is “I”. In the case of `O=C(c1ccc(OCCN2CCCCC2)cc1)c1c(-c2ccc(O)cc2)sc2cc(O)ccc12` [Raloxifene], the “Log P” value in data set [1] was greater than 1. Take `O=C(NC(Cc1cc(=O)[nH]c2ccccc12)C(=O)O)c1ccc(Cl)cc1` (centres unmarked) [Rebamipide]: in data set [1], the “Log P” value was greater than 1. Regarding `CC1=C(/C=C/C(C)=C/C=C/C(C)=C/C(=O)O)C(C)(C)CCC1` [Retinoic acid], the “Log P” value in data set [1] was greater than 1. For the compound `C[C@H](O)[C@H](O)[C@H]1CNc2nc(N)[nH]c(=O)c2N1` [Sapropterin], the BCS result in data set [2] was “I”. Moreover, the “Log P” value in data set [1] was less than 1. Turning to `NCCc1c[nH]c2ccc(O)cc12` [Serotonin], the “Log P” value in data set [1] is given as less than 1.

With `N[C@@H](Cc1c[nH]c2ccccc12)C(=O)O` [Tryptophan], the log partition coefficient (Log P) in data set [1] is less than 1.

Consider `C=C(C)[C@@H]1CCC(C)=C[C@H]1c1c(O)cc(CCCCC)cc1O` [cannabidiol], for which the “solubility in a glycerolipid admixture of MAISINE CC and GELUCIRE 43/01” value in data set [6] was “soluble”. Turning to `COc1ccc2cc([C@H](C)C(=O)O)ccc2c1` [naproxen sodium], in data set [3] (393 mg alone added to 500 mg MAISINE CC and 1,000 mg GELUCIRE 43/01, about 130° C.), the “incorporation into heated glycerolipid mixture (visual)” value was “failed to incorporate”.

With `COC(=O)c1ccc2c(c1)NC(=O)/C2=C(\Nc1ccc(N(C)C(=O)CN2CCN(C)CC2)cc1)c1ccccc1` [nintedanib esylate], the “incorporation into heated glycerolipid mixture (visual)” value in data set [3] (40 mg in 1.0 g MAISINE CC with 1.5 g oleic acid and 100 or 150 mg sodium oleate or sodium stearate, about 130° C., no cholic acid or lecithin) is listed as “failed to incorporate”; in data set [3] (40 mg in 1.0 g MAISINE CC with 1.5 g oleic acid, sodium oleate or sodium stearate, and 30 mg of cholic acid or 30 mg lecithin, about 130° C.), “became soluble”.

As for `CCCCCCCC/C=C\CCCCCCCC(=O)O` [oleic acid], the “miscibility in the dissolution media” value in data set [7] is reported as “not miscible”. Also, in data set [8], the “critical micellar concentration (CMC)” value is given as 2.3 mM.

On to `Clc1ccc(CCCOCCCN2CCCCC2)cc1` [pitolosant], for which the “solubility in heated lipid in the absence of cholic acid (visual)” value in data set [4] is given as “remained insoluble”. Take `CCCCCCCCCCCCCCCCCC(=O)[O-].[Na+]` [sodium stearate]: the “critical micellar concentration (CMC)” value in data set [8] was 0.071 mM.

Broadly, the Log P is the decadic logarithm of the partition coefficient of the neutral form, usually between octanol and water.

The record behind these values is patent US12226484B2, “Compositions having improved bioavailability of therapeutics” (TRx Biosciences Limited, priority 2021, dated 2025).
